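Dose response: 5 concentrations. Exposure: 48 h. Format: 96-well plates. Endpoint: linear interpolation; highest concentration if not reached. TGI: concentration producing complete growth inhibition.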
Legend:
Assay in all cases: growth of human tumour cells (NCI), 48 h
[1] = system: ACHN renal
[2] = system: MDA-MB-231 breast
[3] = system: M14 melanoma
[4] = system: HCT-116 colon
[5] = system: HOP-62 NSCLC
[6] = system: OVCAR-8 ovarian
[7] = system: OVCAR-4 ovarian
[8] = system: A549 NSCLC
[9] = system: SF-268 CNS
[10] = system: MALME-3M melanoma

SMILES | TGI [1] [µM] | TGI [2] [µM] | TGI [3] [µM] | TGI [4] [µM] | TGI [5] [µM] | TGI [6] [µM] | TGI [7] [µM] | TGI [8] [µM] | TGI [9] [µM] | TGI [10] [µM]
COC(=O)N1C[C@@]2(C=CC3(CC2)OCCO3)c2ccccc21 | > 100 | > 100 | > 100 | > 100 | > 100 | > 100 | > 100 | > 100 |  | 
CN(C)c1ccc(/C=C/C=C\C2=CC(=C\C=C/C=C3C=CC(=[N+](C)C)C=C3)/Sc3ccccc32)cc1 |  |  | 27.5 | > 100 | > 100 | > 100 |  | > 100 | > 100 | > 100
C=CCONC(=O)c1ccc(Cl)cc1 | > 100 |  | > 100 | > 100 | > 100 | > 100 | > 100 | > 100 | > 100 | > 100
NC(=O)OCC(COc1ccc(Cl)cc1)OC(=O)c1ccccc1Cl (stereo not given) | 95.1 |  | 32.8 | 30.7 | 49.2 | 54.3 |  | 75.8 | 79.1 | 48.6
C/C(CN1C(=O)c2ccccc2C1=O)=N\NS(=O)(=O)c1ccc(Br)cc1 | > 100 |  | > 100 | > 100 | > 100 | > 100 | > 100 | > 100 | > 100 | > 100
CC#COP(=O)(OCC)OCC | > 100 |  | > 100 | > 100 | > 100 | > 100 | > 100 | > 100 | > 100 | > 100
O=C(O)c1c[nH]c2c(Sc3ccccc3)nccc2c1=O | > 100 | > 100 | > 100 | > 100 | > 100 | > 100 | > 100 | > 100 | > 100 | 
COc1ccc(OC)c2sc(N3C(=O)/C(=C/Cc4ccco4)N=C3c3ccccc3)nc12 | 73 | > 100 | > 100 | 98.9 | > 100 | > 100 | > 100 | > 100 | > 100 | 
C=C(c1ccccc1)C1ON(C)CCc2cc(OC)c(OC)cc21 (stereo not given) | > 100 | > 100 | > 100 | > 100 | > 100 | > 100 |  | > 100 | > 100 | > 100
NCCCCNCCCN1CC1 |  |  | > 100 | > 100 | 5.83 |  | 0.733 | > 100 | > 100 | > 91.9
CSC1=N[C@H](c2ccccc2)CS1 | > 100 |  | > 100 | > 100 | > 100 |  | > 100 | > 100 |  | 
NC(=S)NNC(=O)/C(=C/c1ccc(/C=C(\NC(=O)c2ccccc2)C(=O)NNC(N)=S)cc1)NC(=O)c1ccccc1 | > 100 |  | > 100 | > 100 | > 100 | > 100 | > 100 | > 100 | > 100 | > 100
COc1cc(S(=O)(=O)Nc2ccc(-c3csc(N4C(=O)CSC4c4cccs4)n3)cc2)ccc1Cl (stereo not given) | > 100 |  | > 100 | > 100 | > 100 | > 100 | 82.9 | > 100 | 40.5 | 70.6
COc1ccc(C2c3cc4c(cc3C(O)C3CCC(=O)N23)OCO4)cc1 (stereo not given) | > 100 |  | > 100 | > 100 | > 100 | > 100 | > 100 | > 100 | > 100 | > 100
Cc1occc1C(=S)Nc1ccc(Cl)c(C(=O)OCC(F)(F)F)c1 | 54.1 | 35.2 | > 100 | 33.1 |  | 36.2 | 45.9 | 58.4 | 42.3 | 73.7
CC(=O)OCC(=O)[C@@]1(O)CC[C@H]2[C@@H]3CCC4=CC(=O)[C@H](C)C[C@]4(C)[C@H]3[C@@H](O)C[C@@]21C | > 100 |  | > 100 | > 100 | > 100 | > 100 | > 100 | > 100 | > 100 | > 100
CC1=C/C(=N\OCC(=O)O)CC(c2ccc(C(C)C)cc2)C1 (stereo not given) |  | > 100 | > 100 | > 100 |  | > 100 |  | > 100 |  | > 100
c1ccc(Nc2nnc(CSc3nc(-c4ccccc4)c(-c4ccccc4)[nH]3)s2)cc1 | > 100 |  | 28.5 | 35.7 | 41 | 53.8 | 87.7 | 73.3 | 46.2 | 34.6
CCOC(=O)NC(C(F)(F)F)(C(F)(F)F)P(=O)(OC(C)C)OC(C)C | > 100 | > 100 |  | > 100 | > 100 | > 100 | > 100 | > 100 | > 100 | > 100
COc1ccc(/C=C2/C(C)=NN(c3cccc(Cl)c3)/C2=N/c2nc3ccccc3s2)cc1 | 42.2 | 67.5 | 60.8 | 33.9 | 47.2 | 49.3 | > 100 |  | 66.9 | 
COc1cc(Br)c(OC)c2c(OC)cc(C)cc12 | > 100 | > 100 | > 100 | > 100 | > 100 | > 100 |  |  | > 100 | > 100
COc1cc2c(/C=C3/C(=O)Nc4ccc(Cl)cc43)c(Cl)n(Cc3ccccc3)c2cc1C | 6.8 | 6.04 | 18.2 | > 100 |  |  |  | > 100 | > 100 | 4.38
CCCCCCn1c(SCC)c2ccccc2c1-c1nc(F)nc(F)n1 | > 100 |  | > 100 | > 100 | > 100 | > 100 | > 100 | > 100 | > 100 | > 100
O=C1CSC2(CC(/C=C/c3ccccc3O)=NN2c2cccc(S(=O)(=O)O)c2)N1c1nc2ccccc2s1 (stereo not given) | > 100 | > 100 | > 100 | > 100 |  | 54.1 | 88.5 | > 100 | > 100 | > 100

Source: PubChem BioAssay (NCI)
